This assay deals with JA 657 chicks. In words: Chick sleep/sedation test (IM injection, 90 minute observation). The class given is in vivo. The settings on record: for Sed (sedation time as % of the period) / TA (time to torpor between injection and first stage of sleep) / TS (duration of the first sleep) / Tsed (total sedation time over the period): 90 min observation; for TS (mins) Placebo diff'ce: extension of first sleep compared with test controls. How it is done: The dihydroimidazo[5,1-a]-β-carboline derivatives of the invention, in particular those in the form of the methyl sulfonate, (soluble), were tested in chicks, and certain compounds that were active in the chick were administered in single doses to six Beagle dogs of both sexes for a polysomnographic study of at least 4 hours duration.
JA 657 chicks from Couvoir Gauguet, 44 Le Pin, were accustomed for at least 6 days to an alternating program of light and darkness with 12 hours of daylight and 12 hours of darkness at a regulated temperature of 25±2° C. They were fed ad libitum and were placed under test compounds in a vivarium in groups of 3 individuals with a mean weight of 100±10 g on the day of the test. At that age in this species, there is no effective meningeal (hemato-encephalic) barrier. The test products were injected in 3 doses (1, 3 and 10 mg/kg) intramuscularly (IM) in solution or in an aqueous suspension (1 drop of Tween 80 per ml), each to two batches of 3 chicks which were observed over 90 minutes. For each test series (18 vivaria), there was at least one batch of negative control chicks receiving the same volume (0.2 ml IM) of water for injectable preparations.
During the 90 minute observation period, the chicks were strongly stimulated every 15 minutes by presenting a full feeding trough, and each 5 minute period was given a grade from among the following 5 states, corresponding to the state of alertness over that period:
Mobile, sitting alert, drowsy, asleep, sleep-like state. The parameters studied were the time to torpor (TA) passed between injection and the first stage of sleep, the duration of the first sleep (TS) and the total sedation time over the period (Tsed), expressed in minutes and as a % of the period (Sed).
To compare the results of tests carried out at different dates, the extension of the duration of the first sleep TS compared with the test controls was recorded.

Regarding `CCCc1ncc2n1CCc1c-2[nH]c2ccc(OC)cc12` [Example 7, 8-methoxy-3-propyl-5,6-dihydroimidazo[5,1-a]-β-carboline], for the setting “Dose: 1 mg/kg”, the “Sed (sedation time as % of the period)” value is recorded as 41.4%; the “TA (time to torpor between injection and first stage of sleep)” value was found to be 16.5 min; the “TS (duration of the first sleep)” value stood at 16 min; the “Tsed (total sedation time over the period)” value was found to be 46 min. For the same molecule, the “TS (mins) Placebo diff'ce” value (Dose: 1 mg/kg) came to 16 min. Moreover, under “Dose: 3 mg/kg”, the “Sed (sedation time as % of the period)” value is 41%; the “TA (time to torpor between injection and first stage of sleep)” value is 16.5 min; the “TS (duration of the first sleep)” value came to 27 min; the “Tsed (total sedation time over the period)” value is 45.5 min. For the same molecule, for the setting “Dose: 3 mg/kg”, the “TS (mins) Placebo diff'ce” value stood at 27 min. Under “Dose: 10 mg/kg”, the “Sed (sedation time as % of the period)” value was found to be 48.2%; the “TA (time to torpor between injection and first stage of sleep)” value worked out at 12.5 min; the “TS (duration of the first sleep)” value worked out at 38.5 min; the “Tsed (total sedation time over the period)” value stood at 53.5 min. Where the note is “Dose: 10 mg/kg”, the “TS (mins) Placebo diff'ce” value amounted to 38.5 min.
Take `CCn1c2c(c3cc(Cl)ccc31)CCn1c-2cnc1C.CS(=O)(=O)O` [Example 17, 8-chloro-3-methyl-11-ethyl-5,6-dihydro-imidazo[5,1-a]-β-carboline methane sulfonate]: where the note is “Dose: 1 mg/kg”, the “Sed (sedation time as % of the period)” value is recorded as 41.1%; the “TA (time to torpor between injection and first stage of sleep)” value turned out to be 12 min; the “TS (duration of the first sleep)” value was 12 min; the “Tsed (total sedation time over the period)” value was 37 min. Moreover, the “TS (mins) Placebo diff'ce” value (Dose: 1 mg/kg) is 11.7 min. Besides, for the setting “Dose: 3 mg/kg”, the “Sed (sedation time as % of the period)” value turned out to be 33.3%; the “TA (time to torpor between injection and first stage of sleep)” value stood at 7.5 min; the “TS (duration of the first sleep)” value was 23.5 min; the “Tsed (total sedation time over the period)” value is 30 min. Moreover, the “TS (mins) Placebo diff'ce” value (Dose: 3 mg/kg) was 23 min. Also, where the note is “Dose: 10 mg/kg”, the “Sed (sedation time as % of the period)” value is recorded as 67.2%; the “TA (time to torpor between injection and first stage of sleep)” value worked out at 5 min; the “TS (duration of the first sleep)” value was 43.5 min; the “Tsed (total sedation time over the period)” value was 60.5 min. In addition, the “TS (mins) Placebo diff'ce” value (Dose: 10 mg/kg) turned out to be 43 min.
For `CCn1c2c(c3ccccc31)CCn1c-2cnc1C.CS(=O)(=O)O` [Example 15, 11-ethyl-3-methyl-5,6-dihydroimidazo[5,1-a]-β-carboline methane sulfonate], under “Dose: 1 mg/kg”, the “Sed (sedation time as % of the period)” value is on record as 23.9%; the “TA (time to torpor between injection and first stage of sleep)” value turned out to be 12.5 min; the “TS (duration of the first sleep)” value was determined as 12 min; the “Tsed (total sedation time over the period)” value came out at 21.5 min. Further, the “TS (mins) Placebo diff'ce” value (Dose: 1 mg/kg) amounted to 21 min. For the same molecule, under “Dose: 3 mg/kg”, the “Sed (sedation time as % of the period)” value is reported as 45%; the “TA (time to torpor between injection and first stage of sleep)” value came to 7 min; the “TS (duration of the first sleep)” value came to 29.5 min; the “Tsed (total sedation time over the period)” value was found to be 40.5 min. The “TS (mins) Placebo diff'ce” value (Dose: 3 mg/kg) turned out to be 29 min. For the same molecule, where the note is “Dose: 10 mg/kg”, the “Sed (sedation time as % of the period)” value was 80%; the “TA (time to torpor between injection and first stage of sleep)” value is 1 min; the “TS (duration of the first sleep)” value was found to be 70 min; the “Tsed (total sedation time over the period)” value was 72 min. Besides, the “TS (mins) Placebo diff'ce” value (Dose: 10 mg/kg) was 69.7 min.
Consider `COc1ccc2[nH]c3c(c2c1)CCn1cncc1-3` [Example 3, 8-methoxy-5,6-dihydroimidazo[5,1-a]-β-carboline], for which, for the setting “Dose: 1 mg/kg”, the “Sed (sedation time as % of the period)” value is reported as 73.9%; the “TA (time to torpor between injection and first stage of sleep)” value is 10 min; the “TS (duration of the first sleep)” value was determined as 40 min; the “Tsed (total sedation time over the period)” value was 66.51 min. In addition, the “TS (mins) Placebo diff'ce” value (Dose: 1 mg/kg) is 36 min. Further, for the setting “Dose: 3 mg/kg”, the “Sed (sedation time as % of the period)” value amounted to 78.9%; the “TA (time to torpor between injection and first stage of sleep)” value amounted to 7 min; the “TS (duration of the first sleep)” value came out at 66.5 min; the “Tsed (total sedation time over the period)” value came out at 71.0 min. Also, the “TS (mins) Placebo diff'ce” value (Dose: 3 mg/kg) stood at 62.5 min. For the same molecule, under “Dose: 10 mg/kg”, the “Sed (sedation time as % of the period)” value amounted to 86.7%; the “TA (time to torpor between injection and first stage of sleep)” value stood at 6.5 min; the “TS (duration of the first sleep)” value was 77.5 min; the “Tsed (total sedation time over the period)” value is 78.0 min. Further, for the setting “Dose: 10 mg/kg”, the “TS (mins) Placebo diff'ce” value was determined as 73.5 min.
As to `CS(=O)(=O)O.Cc1ccc2[nH]c3c(c2c1)CCn1c-3cnc1C` [Example 18, 3,8-dimethyl-5,6-dihydroimidazo[5,1-a]-β-carboline methane sulfonate], for the setting “Dose: 1 mg/kg”, the “Sed (sedation time as % of the period)” value is on record as 69.4%; the “TA (time to torpor between injection and first stage of sleep)” value was 5 min; the “TS (duration of the first sleep)” value came out at 32.5 min; the “Tsed (total sedation time over the period)” value was 62.5 min. The “TS (mins) Placebo diff'ce” value (Dose: 1 mg/kg) was 24 min. Moreover, where the note is “Dose: 3 mg/kg”, the “Sed (sedation time as % of the period)” value came out at 63.9%; the “TA (time to torpor between injection and first stage of sleep)” value turned out to be 4.5 min; the “TS (duration of the first sleep)” value came out at 30.5 min; the “Tsed (total sedation time over the period)” value is 57.5 min. Under “Dose: 3 mg/kg”, the “TS (mins) Placebo diff'ce” value is 22.5 min. Also, under “Dose: 10 mg/kg”, the “Sed (sedation time as % of the period)” value amounted to 90.6%; the “TA (time to torpor between injection and first stage of sleep)” value was 7.5 min; the “TS (duration of the first sleep)” value was found to be 76 min; the “Tsed (total sedation time over the period)” value came to 81.5 min. Moreover, for the setting “Dose: 10 mg/kg”, the “TS (mins) Placebo diff'ce” value was determined as 68 min.
On to `CS(=O)(=O)O.Cc1ncc2n1CCc1c-2n(C)c2ccc(Cl)cc12` [Example 16, 8-chloro-3,11-dimethyl-5,6-dihydroimidazo-[5,1-a]-β-carboline methane sulfonate], for which, under “Dose: 1 mg/kg”, the “Sed (sedation time as % of the period)” value is on record as 41%; the “TA (time to torpor between injection and first stage of sleep)” value turned out to be 11.5 min; the “TS (duration of the first sleep)” value was determined as 15 min; the “Tsed (total sedation time over the period)” value turned out to be 37 min. Also, the “TS (mins) Placebo diff'ce” value (Dose: 1 mg/kg) came out at 14.7 min. In addition, under “Dose: 3 mg/kg”, the “Sed (sedation time as % of the period)” value worked out at 33.9%; the “TA (time to torpor between injection and first stage of sleep)” value is 13.5 min; the “TS (duration of the first sleep)” value is 20.5 min; the “Tsed (total sedation time over the period)” value is 30.5 min. Besides, the “TS (mins) Placebo diff'ce” value (Dose: 3 mg/kg) was determined as 20 min. Moreover, for the setting “Dose: 10 mg/kg”, the “Sed (sedation time as % of the period)” value turned out to be 58.3%; the “TA (time to torpor between injection and first stage of sleep)” value was 7.5 min; the “TS (duration of the first sleep)” value came out at 31 min; the “Tsed (total sedation time over the period)” value worked out at 52.5 min. The “TS (mins) Placebo diff'ce” value (Dose: 10 mg/kg) came to 52 min.
As to `CCc1nc(C)n2c1-c1[nH]c3ccc(OC)cc3c1CC2` [Example 5, 1-ethyl-8-methoxy-3-methyl-5,6-dihydro-imidazo[5,1-a]-β-carboline], for the setting “Dose: 1 mg/kg”, the “Sed (sedation time as % of the period)” value turned out to be 58.3%; the “TA (time to torpor between injection and first stage of sleep)” value turned out to be 20.5 min; the “TS (duration of the first sleep)” value amounted to 33 min; the “Tsed (total sedation time over the period)” value stood at 52.47 min. Besides, the “TS (mins) Placebo diff'ce” value (Dose: 1 mg/kg) amounted to 29 min. For the setting “Dose: 3 mg/kg”, the “Sed (sedation time as % of the period)” value came to 76.7%; the “TA (time to torpor between injection and first stage of sleep)” value was 14.5 min; the “TS (duration of the first sleep)” value stood at 53 min; the “Tsed (total sedation time over the period)” value came out at 69.0 min. The “TS (mins) Placebo diff'ce” value (Dose: 3 mg/kg) came to 49 min. Where the note is “Dose: 10 mg/kg”, the “Sed (sedation time as % of the period)” value is given as 62.8%; the “TA (time to torpor between injection and first stage of sleep)” value was found to be 13.5 min; the “TS (duration of the first sleep)” value is 40.5 min; the “Tsed (total sedation time over the period)” value came to 56.5 min. Also, where the note is “Dose: 10 mg/kg”, the “TS (mins) Placebo diff'ce” value was found to be 36.5 min.
Consider `COc1ccc2[nH]c3c(c2c1)CCn1c-3cnc1C(C)C` [Example 6, 8-methoxy-3-isopropyl-5,6-dihydroimidazo-[5,1-a]-β-carboline], for which, for the setting “Dose: 1 mg/kg”, the “Sed (sedation time as % of the period)” value worked out at 73.3%; the “TA (time to torpor between injection and first stage of sleep)” value is 11 min; the “TS (duration of the first sleep)” value worked out at 56.5 min; the “Tsed (total sedation time over the period)” value worked out at 65.97 min. The “TS (mins) Placebo diff'ce” value (Dose: 1 mg/kg) is 52.5 min. Besides, where the note is “Dose: 3 mg/kg”, the “Sed (sedation time as % of the period)” value is 80.6%; the “TA (time to torpor between injection and first stage of sleep)” value amounted to 12.5 min; the “TS (duration of the first sleep)” value was 72.5 min; the “Tsed (total sedation time over the period)” value came out at 72.5 min. The “TS (mins) Placebo diff'ce” value (Dose: 3 mg/kg) is 68.5 min. Also, under “Dose: 10 mg/kg”, the “Sed (sedation time as % of the period)” value is recorded as 82.2%; the “TA (time to torpor between injection and first stage of sleep)” value came out at 12.5 min; the “TS (duration of the first sleep)” value is 72.5 min; the “Tsed (total sedation time over the period)” value came out at 74.0 min. In addition, the “TS (mins) Placebo diff'ce” value (Dose: 10 mg/kg) turned out to be 68.5 min.
